Several values for one entry are separate records, joined by “and”; a condition that tells them apart may be missing. Equal values may be shown once.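 A five-concentration, 48-hour dose response in 96-well plates underlies each endpoint, interpolated linearly between surrounding concentrations. Abbreviation: GI50, concentration required for 50% inhibition of growth. At the TGI there is no net growth.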

For one test, the system named is SNB-78 CNS. As to the kind of experiment: growth of human tumour cells (NCI), 48 h.
The compound `Cc1c2ccncc2c(C)c2c1[nH]c1ccc(O)c(OCC(F)(F)F)c12` yielded a TGI of 18.2 µM.

For the compound `O=C1[C@H]2ON(c3ccccc3)C(c3ccco3)[C@H]2C(=O)N1c1ccc(Cc2ccc(N3C(=O)[C@@H]4ON(c5ccccc5)C(c5ccco5)[C@@H]4C3=O)cc2)cc1` (stereo partly specified), the TGI is above 100 µM.

On to `Cc1cccc(C)c1N1C(=O)C(=O)C(c2nc3ccccc3s2)/C(=N/NC(=O)NN)C1=O` (stereo unspecified), for which the TGI is above 100 µM.

Take `CC(C)(C)c1ccc(OC2CCO2)cc1` (stereo unspecified): the TGI was above 100 µM.

In the case of `COc1ccccc1NC(=O)/C(=C/c1ccccc1)C(C)=O`, the TGI stood at 44.6 µM.

Compound `O=C(CC1(O)C(=O)Nc2c(Cl)ccc(Cl)c21)c1ccc(Cl)cc1Cl` (stereo unspecified) displayed a TGI above 100 µM.

`CC1=NN(C(=O)c2ccncc2)C(=O)C1N=Nc1ccc(F)cc1` (stereo unspecified) had a TGI above 100 µM.

For the compound `COc1ccc(C2Oc3c(c(O)cc4c3[C@H](c3ccc(O)cc3O)[C@H](O)C(c3ccc(O)c(O)c3)O4)C[C@@H]2O)cc1O` (stereo partly specified), the TGI is above 100 µM.

In turn, `CC(C)(C)NCC(COc1ccc([N+](=O)[O-])cc1)OP(c1ccccc1)c1ccccc1` (stereo unspecified) had a TGI above 100 µM.

A further test has as its system MDA-N. As to the kind of experiment: growth of human tumour cells (NCI), 48 h.
`O=C(Cl)C1=C(c2ccccc2)C1c1ccccc1` (stereo unspecified) came in with a TGI above 100 µM.

The compound `Cc1cc(C)n(C2=NS(=O)(=O)c3ccccc3N2C)n1` gave a TGI above 100 µM.

The compound `O=C1c2cccc3cccc(c23)C(=O)N1O` came in with a TGI above 100 µM.

The compound `O=C(O)c1ccccc1C(=O)c1ccc2c(c1)Cc1ccccc1-2` had a TGI above 100 µM.

In turn, `C=CC1=C(C)C2=NC1=CC1=NC(=CC3=C(C)C4=C(O)[C@H](C(=O)OC)C(=C5NC(=C2)[C@@H](C)[C@@H]5CCC(=O)O)C4=N3)C(CC)=C1C` came in with a TGI above 100 µM.

For the compound `CN1c2ccccc2SC2C(c3ccccc3)=NOC21` (stereo unspecified), the TGI was 52.8 µM.

The compound `COc1c(O)c(OC)c2oc(-c3ccc(O)cc3)c(OC)c(=O)c2c1O` registered a TGI above 100 µM.

A further test has as its system KM20L2 colon. In words: growth of human tumour cells (NCI), 48 h.
Turning to `Cc1c2ccncc2c(C)c2c1[nH]c1ccc(O)c(OCC(F)(F)F)c12`, the TGI was 27.3 µM.

`O=C1[C@H]2ON(c3ccccc3)C(c3ccco3)[C@H]2C(=O)N1c1ccc(Cc2ccc(N3C(=O)[C@@H]4ON(c5ccccc5)C(c5ccco5)[C@@H]4C3=O)cc2)cc1` (stereo partly specified) displayed a TGI above 100 µM.

On to `Cc1cccc(C)c1N1C(=O)C(=O)C(c2nc3ccccc3s2)/C(=N/NC(=O)NN)C1=O` (stereo unspecified), for which the TGI is above 100 µM.

`CC(C)(C)c1ccc(OC2CCO2)cc1` (stereo unspecified) yielded a TGI of 52.8 µM.

With `CC(C)[O-].CC(C)[O-].O=c1cccccc1[O-].O=c1cccccc1[O-].[Ti+4]`, the GI50 is 46.1 µM and the TGI is above 100 µM.

Consider `O=C(CC1(O)C(=O)Nc2c(Cl)ccc(Cl)c21)c1ccc(Cl)cc1Cl` (stereo unspecified), for which the TGI is above 100 µM.

As to `CC1=NN(C(=O)c2ccncc2)C(=O)C1N=Nc1ccc(F)cc1` (stereo unspecified), the TGI is above 100 µM.

For `COc1ccc(C2Oc3c(c(O)cc4c3[C@H](c3ccc(O)cc3O)[C@H](O)C(c3ccc(O)c(O)c3)O4)C[C@@H]2O)cc1O` (stereo partly specified), the TGI was above 100 µM.

Consider `CC(=O)[CH-]C(=O)c1ccccc1.CC(=O)[CH-]C(=O)c1ccccc1.CC1(C)OCC(C2OC3OC(C)(C)OC3C2[O-])O1.CC[O-].[Ti+4]` (stereo unspecified), for which the GI50 is 21 µM and the TGI worked out at 53.5 µM.

On to `CC(C)(C)NCC(COc1ccc([N+](=O)[O-])cc1)OP(c1ccccc1)c1ccccc1` (stereo unspecified), for which the TGI was above 100 µM.

In the next test the test system is HOP-18 NSCLC. As to the kind of experiment: growth of human tumour cells (NCI), 48 h.
For `O=C1[C@H]2ON(c3ccccc3)C(c3ccco3)[C@H]2C(=O)N1c1ccc(Cc2ccc(N3C(=O)[C@@H]4ON(c5ccccc5)C(c5ccco5)[C@@H]4C3=O)cc2)cc1` (stereo partly specified), the TGI was above 100 µM.

`Cc1cccc(C)c1N1C(=O)C(=O)C(c2nc3ccccc3s2)/C(=N/NC(=O)NN)C1=O` (stereo unspecified) came in with a TGI above 100 µM.

Consider `CC(C)(C)c1ccc(OC2CCO2)cc1` (stereo unspecified), for which the TGI is above 100 µM.

In the case of `CC(C)[O-].CC(C)[O-].O=c1cccccc1[O-].O=c1cccccc1[O-].[Ti+4]`, the GI50 was above 100 µM and the TGI was above 100 µM.

For the compound `COc1ccccc1NC(=O)/C(=C/c1ccccc1)C(C)=O`, the TGI was above 100 µM.

With `O=C(CC1(O)C(=O)Nc2c(Cl)ccc(Cl)c21)c1ccc(Cl)cc1Cl` (stereo unspecified), the TGI was above 100 µM.

Turning to `COc1ccc(C2Oc3c(c(O)cc4c3[C@H](c3ccc(O)cc3O)[C@H](O)C(c3ccc(O)c(O)c3)O4)C[C@@H]2O)cc1O` (stereo partly specified), the TGI was above 100 µM.

Consider `CC(=O)[CH-]C(=O)c1ccccc1.CC(=O)[CH-]C(=O)c1ccccc1.CC1(C)OCC(C2OC3OC(C)(C)OC3C2[O-])O1.CC[O-].[Ti+4]` (stereo unspecified), for which the GI50 is 21.4 µM and the TGI stood at 56.5 µM.

Another test has as its system NCI/ADR-RES ovarian. In words: growth of human tumour cells (NCI), 48 h.
Take `O=C(/C=C/c1cccc(O)c1)c1cccc(-n2cc(-c3ccc4ccccc4c3)[nH]c2=O)c1`: the GI50 is 1.55 µM and the TGI came out at 5.83 µM.

For `c1cnn2ncc(-c3ccnc(Nc4ccc5c(c4)OCCO5)n3)c2c1`, the GI50 is 0.0781 µM and the TGI amounted to 1.65 µM.

Regarding `Cc1ccc(-n2nc(C(C)(C)C)cc2NC(=O)NCc2cc(F)ccc2Oc2ccc3c(cnn3CCO)c2)cc1`, the GI50 was > 10 µM and 7.5 µM; the TGI is above 100 µM.

For the compound `Cc1cc(C)n(C2=NS(=O)(=O)c3ccccc3N2C)n1`, the TGI was above 100 µM.

Consider `COc1cccc2c(=O)c3c(sc12)c(NCCCNCCO)nc1ccccc13`, for which the GI50 is 1.81 µM and the TGI is 3.94 µM.

`O=C1c2cccc3cccc(c23)C(=O)N1O` displayed a TGI above 100 µM.

In the case of `O=C(O)c1ccccc1C(=O)c1ccc2c(c1)Cc1ccccc1-2`, the TGI was above 100 µM.

`C=CC1=C(C)C2=NC1=CC1=NC(=CC3=C(C)C4=C(O)[C@H](C(=O)OC)C(=C5NC(=C2)[C@@H](C)[C@@H]5CCC(=O)O)C4=N3)C(CC)=C1C` came in with a TGI above 22.1 µM.

Regarding `COc1ccc(Nc2nccc(N3CCN(c4c5ccc(Cl)cc5nc5ccc(OC)cc45)CC3)n2)cc1`, the GI50 was 7.41 µM and the TGI was above 100 µM.

As for `CC(=Nc1ccc(S(N)(=O)=O)cc1)c1c(O)[nH]c2ccccc12`, the GI50 was above 25 µM and the TGI is above 25 µM.

In the case of `CCn1c(-c2nonc2N)nc2ccncc21`, the GI50 was above 25 µM and the TGI is above 25 µM.

Regarding `CC(C)[O-].CC(C)[O-].CN(CCN(C)Cc1cc(F)cc(F)c1[O-])Cc1cc(F)cc(F)c1[O-].[Ti+4]`, the GI50 was 0.863 µM and the TGI was determined as 7.05 µM.

For `CSc1ccc(N(C)c2nc(C)nc3c2CCC3)cc1`, the GI50 was below 0.01 µM and the TGI is 12.6 µM.

Regarding `O=C1/C(=C/c2ccc([N+](=O)[O-])cc2)COc2ccc(O)cc21`, the GI50 is 16.9 µM and the TGI was above 100 µM.

As for `COc1ccc(-c2cnoc2-c2cc(OC)c3c(c2)OCCO3)cc1`, the GI50 is below 0.0132 µM and the TGI stood at 49.5 µM.

For `CC(C)Oc1ccc(C(=O)Cn2ccnc2)cc1-n1c(CN2CCN(C(=O)COc3ccc(Cl)cc3)CC2)nc2ccccc2c1=O`, the GI50 was above 100 µM and the TGI was above 100 µM.

As to `COc1cccc(COc2cc(-n3cnc4ccccc43)sc2C(N)=O)c1`, the GI50 was 1.75 µM and the TGI was above 25 µM.

For `CCN(CC)c1ccc(/C=C/C2=[N+](C)c3ccccc3C2(C)C)c(C)c1`, the GI50 is 2.24 µM and the TGI is 13 µM.

`Fc1ccc2nc(-c3cc(-c4ccc5c(c4)OCO5)n[nH]3)[nH]c2c1`: the GI50 was 3.99 µM and the TGI was above 100 µM.

Consider `COC(=O)c1ccc2c(c1)C(=O)c1c-2n(CCCN=[N+]=[N-])c(=O)c2cc([N+](=O)[O-])ccc12`, for which the GI50 was above 100 µM and the TGI is above 100 µM.

With `O=C(c1cccs1)C1NO[N+]([O-])=C1c1cccs1` (stereo unspecified), the GI50 was 3.42 µM and the TGI was 18.9 µM.

`CN1c2ccccc2SC2C(c3ccccc3)=NOC21` (stereo unspecified) gave a TGI of 87.3 µM.

Consider `COc1c(O)c(OC)c2oc(-c3ccc(O)cc3)c(OC)c(=O)c2c1O`, for which the TGI was above 100 µM.

Take `COc1ccc(C2=C(N3CCc4ccccc43)C(=O)NC2=O)cc1`: the GI50 was above 25 µM and the TGI is above 25 µM.

Regarding `O=[N+]([O-])c1ccc(-c2cc3c(Nc4ccc(Cl)c(C(F)(F)F)c4)ncnc3s2)cc1`, the GI50 was 1.36 µM and the TGI is above 100 µM.

As to `Cc1cc2c(cc1Cl)S/C(=C/C(=O)O)C(Nc1cccc3nsnc13)=NS2(=O)=O`, the GI50 was above 40.2 µM and the TGI was above 58.9 µM.

As for `COc1ccc(F)c(F)c1C(=O)c1cnc(NC2CCN(S(C)(=O)=O)CC2)nc1N`, the GI50 was 2.63 µM and 1.65 µM; the TGI was above 100 µM.

In the case of `CCOC(=O)N1CCN(CCCCCOc2ccccc2C2CCCCC2)CC1`, the GI50 was 2.05 µM and the TGI stood at 5.66 µM.

For `Nc1cc(-c2ccc(Cl)cc2)nn1-c1nnc(/C=C/c2ccco2)c(=O)[nH]1`, the GI50 is 1.48 µM and the TGI turned out to be 10.5 µM.

`O=C1c2ccccc2-c2c1c1c(NCCCO)nc3ccccc3c1n2Cc1ccccc1`: the GI50 is 18.2 µM and the TGI amounted to 49.4 µM.

`O=C1c2ccccc2-c2c1c1ccccc1c(=O)n2CCNCCn1c2c(c3ccccc3c1=O)C(=O)c1ccccc1-2`: the GI50 was above 25 µM and the TGI is above 25 µM.

As for `CCOc1ccc(Nc2c3ccccc3nc3ccccc23)cc1`, the GI50 was 0.271 µM and 0.117 µM; the TGI came to 0.588 µM.

The values are drawn from PubChem BioAssay (NCI).
